“Also recorded” adds a separate entry of the source.

Data set [1] concerns Crl:CD(SD)IGS BR rats. Kind of data set: Intrathecal infusion toxicity study of heat-sterilized gabapentin solutions in rats (Day 1 to Day 29). Format: in vivo. The note with it: rat. The protocol:
Rats were infused intrathecally with solutions containing varying concentrations of gabapentin.
Injectable solutions containing 80 mg/ml gabapentin were prepared and sterilized by heating to F0=24 as described in Example 1. The heat-sterilized 80 mg/ml gabapentin solutions were diluted in sterile water for injection, USP (Abbott Laboratories; North Chicago, Ill.) to prepare solutions at gabapentin concentrations of 1.67, 4.17, and 37.5 mg/ml as shown in Table 2.
Osmotic minipumps(ALZET® Model 2ML4) were filled with approximately 2 ml of sterile water for Groups 1 and 6 or approximately 2 ml of the appropriate test article preparation for Groups 2 through 5. All dose preparations were filtered using a 0.22 μm filter prior to filling the osmotic minipumps.
The animals were obtained from Charles River Laboratories; Raleigh, N.C.. The animals were cannulated by the supplier in the intrathecal space overlying the lumbar vertebrae. The cannulae consisted of 1.3 cm PE-10 tubing attached to a 7 cm piece of polyurethane tubing (0.025 ID×0.040 OD) with a total dead volume of approximately 23.5 μl. On Day 1 (staggered based on sex), the animals were anesthetized and one prefilled osmotic pump/animal was aseptically inserted subcutaneously on the animal's dorsum. The cannula was filled with sterile water or test article preparation, as appropriate, and the pumps were connected to the intrathecal cannulae. Beginning on Day 1, animals were dosed 24 hours/day at a dose volume of approximately 60.96 μl/day via intrathecal infusion using the osmotic minipump through necropsy on Day 29. At initiation of dosing, the animals were 8 to 9 weeks old, and their body weights ranged from 264 g to 340 g for the males and 191 g to 264 g for the females.
Assessment of toxicity was based on mortality, clinical observations, ophthalmic examinations, body weights, food consumption, clinical pathology, and anatomic pathology. Ophthalmic examinations were performed prior to initiation of treatment and during week 4. An indirect ophthalmoscopy examination was done to include, but was not limited to, a cursory examination of the adnexa and anterior structures of the globe (e.g.,cornea, anterior chamber, lens) and a detailed examination of the ocular fundus. Body weights were taken prior to treatment, on Day 1, and weekly thereafter. Food consumption was measured weekly. At scheduled sacrifices, samples were taken for hematology, coagulation, and clinical chemistry. When possible, blood was collected from animals sacrificed at an unscheduled interval. Tissues were taken from each animal in groups 1 and 4 and each animal sacrificed at an unscheduled interval. Spinal cords were harvested from each animal in Groups 2, 3, and 5. The tissues and spinal cords were processed and examined microscopically. Macroscopic lesions were processed and examined microscopically from animals in Groups 2, 3, and 5. Sections of spinal cord from each animal in Groups 1 and 4 were embedded in paraffin, sectioned, and stained with luxol fast blue, and examined microscopically. Immunohistochemistry of spinal cord sections in paraffin from each animal in Groups 1 and 4 were sectioned, stained with anti-glial acidic fibrillary protein (Dako; Carpinteria, Calif.); rabbit IgG from Vector Laboratories; Burlingame, Calif. was used as a negative control), and examined. […]

Data set [2] is described as follows: Tonicity of gabapentin dissolved in water. The conditions noted are these: dissolved in water at 80 mg/ml. Type of data set: physicochemical. An excerpt: In an embodiment, the invention provides an injectable composition comprising gabapentin, where the composition is substantially isotonic with a physiological fluid of a subject. For example, the injectable solution may be isotonic with a subject's blood or cerebrospinal fluid. Cerebrospinal fluid typically has a tonicity of about 305 mOsm. Accordingly, an embodiment of the invention provides an injectable gabapentin composition having a tonicity of about 290 mOsm to about 320 mOsm. If an injectable composition comprising gabapentin has a tonicity lower than about 290 mOsm to about 320 mOsm, the tonicity may be enhanced by adding a tonicity enhancing agent, such as sodium chloride. As used herein, “tonicity enhancing agent” means a compound or composition that increases tonicity of a composition. However, such tonicities of between about 290 mOsm to about 320 mOsm are not always achievable with gabapentin compositions. For example, gabapentin dissolved in water at a concentration of 80 mg/ml has a tonicity of about 500 mOsm. When the concentration of gabaentin in an injectable composition renders the composition hypertonic relative to a subject's physiological fluid, it is preferred that little or no amount of a tonicity enhancing agent be added to the composition. […]

In data set [3] the test system is mouse. The conditions noted are these: cited from earlier work.
The conditions of data set [4]: water; basic and acidic aqueous solutions; cited from earlier work.

As for `NCC1(CC(=O)O)CCCCC1` [gabapentin, 1-(aminomethyl)cyclohexane acetic acid], the “Overall toxicity / tolerability” value in data set [1] (continuous intrathecal infusion, 0.10, 0.25, 2.25 and 4.8 mg/day, solutions heated to F0=24, acetic acid) is “no toxic effects attributable to the infused solutions were observed; also recorded: well tolerated and non-toxic”. Moreover, the “Glial fibrillary acidic protein immunostaining of spinal cord sections” value in data set [1] (control vs high-dose group (4.8 mg/day)) was “no significant variation”. For the same molecule, the “Organ weight differences, macroscopic observations, microscopic observations” value in data set [1] (intrathecal) is reported as “no test article-related organ weight differences, macroscopic observations, or microscopic observations”. Further, the “Effects on clinical observations, body weights, body weight changes, food consumption, ophthalmic observations, clinical or anatomic pathology observations” value in data set [1] (intrathecal, 0.10-4.8 mg/day) is recorded as “No clear effects were observed”. For the same molecule, the “Effect on clinical pathology test results” value in data set [1] (intrathecal, terminally sterilized by heat) was “no obvious or adverse effect”. Also, in data set [2], the Tonicity result is “about 500 mOsm”. Besides, the “toxicity (LD50, mouse)” value in data set [3] is on record as “more than 8000 mg/kg”. Further, the Solubility entry in data set [4] is “freely soluble”.

The values above are taken from patent US7169812B2, “Process for producing injectable gabapentin compositions” (Medtronic, Inc., priority 2003, dated 2007).
